Measurements from publication PMC9000710, “Synthesis and Hemostatic Activity of New Amide Derivatives” (Molecules, 2022).
“Also recorded” adds a separate entry of the source.

Legend:
[1] = Hemolysis assay (stability of erythrocytes); format: cell-based, human; conditions: male, human, heparinized whole blood diluted with saline (erythrocytes)
Protocol: (§1) Heparinized whole blood was used from a healthy volunteer. The whole blood (10 mL) was diluted with saline solution (90 mL). For each UV-Vis measurement, 2.5 mL of diluted blood was used. For each blood sample, 1 mL of a saline solution containing hydrochlorides 1–8 at concentrations of 5, 50, and 500 mg/L was added. As a control were used blood samples with the addition of 1% solution of DMSO in saline and 1% solution of SDS in saline. In all cases, the measurements were repeated twice for each concentration. […] The cells were centrifuged, and the absorbance of the supernatant, which contained plasma and lysed erythrocytes, was measured at 540 nm. The percentage of lysis was calculated from a standard curve of lysed erythrocytes treated with SDS [52].

erythrocytes = assay: Hemolysis assay (stability of erythrocytes); format: cell-based, human
Protocol: as §1

human blood plasma [2] = assay: Prothrombin time (PT) clotting assay; format: biochemical
Protocol: (§2) Human blood plasma was isolated from fresh buffy coats (collected onto the citrate-dextrose solution—ACD) purchased from the Regional Centre of Blood Donation and Blood Treatment in Lodz, Poland. In the isolation procedure, the buffy coats (60 mL units) were divided into volumes of 10 mL and centrifuged (4000 rpm/15 min) in 15 mL tubes. Next, 1 mL solutions of each amide 1–8 were prepared in distilled water at concentrations of 10, 25, and 50 mg/L. Then, 450 μL of plasma and 50 μL of each amide at the tested concentrations were placed into 1.5 mL vials. The vials were vortexed (Vortex Biosan V-1 plus), incubated at 37 °C on a thermoblock (Dry Block Thermostat Biosan TDB-120), and analyzed using a Kselmed K-3002 OPTIC coagulometer (Grudziądz, Poland), based on the manufacturer’s protocols (described below). The control sample was native blood plasma, untreated with any of the examined substances.
(§3) Fifty microliters of control plasma and plasma samples treated with the amides were transferred to measuring cuvettes and placed in the thermoblock module (37 °C) of a coagulometer (KSELMED, K-3002 Optic). Then, 100 μL of Dia-PT reagent (DIAGON Kft. Hungary; cat. no. 81100) was added. Measurements were started immediately.

human blood plasma [3] = assay: Activated partial thromboplastin time (aPTT) clotting assay; format: biochemical
Protocol: as §2
as §3, with “of the” for “of a”, “Then, 50” for “Then, 100”, “of Dia-APTT” for “of Dia-PT”, “no. 72048) was added. The mixture was incubated for 180 s at 37 °C. Finally, 50 μL of reagent Dia-CaCl2 (DIAGON Kft. Hungary; cat. no. 41192)” for “no. 81100)”

human blood plasma [4] = assay: Thrombin time (TT) clotting assay; format: biochemical
Protocol: as §2
Both 100 μL of control plasma and plasma samples treated with the amides were transferred to measuring cuvettes, which were placed in the thermoblock module (37 °C) of the coagulometer (KSELMED K-3002 Optic). Then, 100 μL of thrombin solution (4.5 U/mL, in 0.9% NaCl; Biomed, Lublin, Poland) was added to the cuvette. Measurements were started immediately.

human blood plasma [5] = assay: Clot formation and fibrinolysis (CFF) assay; format: biochemical; conditions: for Amax (maximum of fibrin clot absorbance at 360 nm) / VmaxC (of Fibrin Polymerization) / VmaxF (of Fibrin Clot Lysis): control plasma assumed as 100%, mean ± SD, n = 5–7; for effect on fibrin polymerization (VmaxC) in words: tested at 10, 25, 50 mg/L
Text: The CFF assay enables analysis of both the blood plasma coagulation process and fibrinolysis efficiency. The thrombin enzyme in the reagent mixture initiates blood plasma fibrinogen polymerization, leading to an increase in absorbance in the sample until the maximal absorbance (Amax) is attained. The fibrinolytic activity of blood plasma is induced by the tissue-type plasminogen activator (t-PA). The activation of fibrinolysis in the tested samples leads to fibrin clot degradation and decreases the absorbance to the baseline.
Figure 11 An exemplary curve of blood plasma coagulation and clot lysis recorded during the clot formation and fibrinolysis (CFF) assay. The first step in the CFF test involves activation of the blood plasma coagulation cascade and fibrin clot formation (1). It is characterized by the maximal velocity of the fibrin polymerization parameter (VmaxC). The maximal absorbance (Amax) peak corresponds to the fibrin stabilization phase and is an indicator of fibrin clot thickness (2). The third step of the CFF assay covers the activation of fibrinolytic mechanisms and fibrin clot degradation (3) and is described by the maximal velocity of clot lysis (VmaxF).
Thrombin was purchased from BioMed (Lublin, Poland). A tissue-type plasminogen activator (Actilyse®) was purchased from Boehringer Ingelheim, Ingelheim am Rhein, Germany. Kinetic measurements were executed using a SpectrostarNano microplate spectrophotometer (BMG LabTech, Ortenberg, Germany).
Measurements were performed using a kinetic model, as described in our previous work. Briefly, blood plasma was preincubated with the examined substances (at final concentrations of 10, 25, and 50 mg/L) for 15 min at 37 °C. Then, 100 μL of blood plasma was added to microtiter plate wells, which was followed by 200 μL of the reagent mixture (0.75 U/mL thrombin, 225 ng/mL t-PA and 7.5 mM CaCl2) suspended in tris-buffered saline (0.05 M TBS, 0.9% NaCl; pH 7.4). Measurements of absorbance changes were started immediately and continued for 60 min at 37 °C, λ = 360 nm. The following parameters were used to determine the effects of the examined substances on the coagulation and fibrinolytic properties of the blood plasma: the maximal velocity of fibrinogen polymerization (VmaxC), which is an indicator of the plasma coagulation efficiency; the maximal absorbance (Amax), which is an indicator of the fibrin clot stabilization and its thickness; the maximal velocity of clot lysis (VmaxF), which is an indicator of blood plasma fibrinolytic activity.

Row | SMILES | hemolysis at 45 min, 5 mg/L ([1]; c 5 mg/L, 45 min) [%] | hemolysis at 45 min, 50 mg/L ([1]; c 50 mg/L, 45 min) [%] | hemolysis at 120 min, 50 mg/L ([1]; c 50 mg/L, 120 min) [%] | hemolysis at 240 min, 50 mg/L ([1]; c 50 mg/L, 240 min) [%] | PT Time [% of Control] (human blood plasma [2]; c 10 mg/L) | PT Time [% of Control] (human blood plasma [2]; c 25 mg/L) | PT Time [% of Control] (human blood plasma [2]; c 50 mg/L) | aPTT Time [% of Control] (human blood plasma [3]; c 10 mg/L) | aPTT Time [% of Control] (human blood plasma [3]; c 25 mg/L) | aPTT Time [% of Control] (human blood plasma [3]; c 50 mg/L) | TT Time [% of Control] (human blood plasma [4]; c 10 mg/L) | TT Time [% of Control] (human blood plasma [4]; c 25 mg/L) | TT Time [% of Control] (human blood plasma [4]; c 50 mg/L) | Amax (maximum of fibrin clot absorbance at 360 nm) (human blood plasma [5]; 10 mg/L) [%] | VmaxC (of Fibrin Polymerization) (human blood plasma [5]; 10 mg/L) [%] | VmaxF (of Fibrin Clot Lysis) (human blood plasma [5]; 10 mg/L) [%] | Amax (maximum of fibrin clot absorbance at 360 nm) (human blood plasma [5]; 25 mg/L) [%] | VmaxC (of Fibrin Polymerization) (human blood plasma [5]; 25 mg/L) [%] | VmaxF (of Fibrin Clot Lysis) (human blood plasma [5]; 25 mg/L) [%] | Amax (maximum of fibrin clot absorbance at 360 nm) (human blood plasma [5]; 50 mg/L) [%] | further results
1 | Cl.NCCCCCC(=O)NCC(=O)O [Amide 1, 2-(6-Aminohexanamido)acetic acid hydrochloride] | 0 | 0.5 | 0.18 | 0.35 | 96.3 ± 2.5 % of Control | 95.0 ± 2.9 % of Control | 95.7 ± 2.2 % of Control | 108.3 ± 11.9 % of Control | 105.1 ± 7.7 % of Control | 101.9 ± 9.3 % of Control | 95.9 ± 6.3 % of Control | 96.1 ± 6.8 % of Control | 94.3 ± 8.3 % of Control | 105.98 ± 4.31 | 106.12 ± 4.28 | 99.08 ± 9.93 | 107.24 ± 8.91 | 105.66 ± 6.27 | 87.32 ± 20.27 | 104.62 ± 9.46 | hemolysis at 120 min, 500 mg/L ([1]; c 500 mg/L, 120 min): 0.56%; hemolysis at 240 min, 500 mg/L ([1]; c 500 mg/L, 240 min): 0.42%; Hemolysis [%] (erythrocytes; c 500 mg/L, 45 min): 0.27%; Hemolysis [%] (erythrocytes; c 500 mg/L, 120 min): 0.59%; Hemolysis [%] (erythrocytes; c 500 mg/L, 240 min): 0.58%; prothrombin time, effect versus control in words (human blood plasma [2]; at all concentrations (10, 25, 50 mg/L)): significantly decreased; aPTT, effect versus control in words (human blood plasma [3]; tested at 10, 25, 50 mg/L): not statistically significant; fibrinolytic activity (VmaxF), effect in words (human blood plasma [5]; 50 µg/mL): no statistically significant effect; VmaxC (of Fibrin Polymerization) (human blood plasma [5]; 50 mg/L): 104.20 ± 3.85 %; VmaxF (of Fibrin Clot Lysis) (human blood plasma [5]; 50 mg/L): 95.58 ± 15.97%; effect on fibrin polymerization (VmaxC) in words (human blood plasma [5]): Mild pro-coagulant effects
2 | Cl.NCC(=O)NCCCCCC(=O)O [Amide 8, 6-(2-Aminoacetamido)hexanoic acid hydrochloride] | 0.08 | 0.44 | 0.71 | 0.36 | 93.0 ± 2.2 % of Control | 95.5 ± 4.3 % of Control | 97.2 ± 3.2 % of Control | 95.1 ± 7.5 % of Control | 97.7 ± 5.9 % of Control | 95.2 ± 7.3 % of Control | 100.0 ± 7.0 % of Control | 94.3 ± 1.3 % of Control | 92.4 ± 5.2 % of Control | 104.83 ± 2.83 | 101.96 ± 6.62 | 82.96 ± 12.49 | 100.18 ± 3.77 | 100.98 ± 6.60 | 96.07 ± 14.56 | 108.64 ± 11.94 | hemolysis at 120 min, 5 mg/L ([1]; c 5 mg/L, 120 min): 0.74%; hemolysis at 45 min, 50 mg/L ([1]; c 50 mg/L as printed in the third concentration block of amides 7 and 8, 45 min): 0%; hemolysis at 120 min, 50 mg/L ([1]; c 50 mg/L as printed in the third concentration block of amides 7 and 8, 120 min): 0.47%; hemolysis at 240 min, 50 mg/L ([1]; c 50 mg/L as printed in the third concentration block of amides 7 and 8, 240 min): 0.37%; Hemolysis [%] (erythrocytes; c 50 mg/L, 240 min): 0.3%; prothrombin time, effect versus control in words (human blood plasma [2]; concentration not specified (10, 25, 50 mg/L tested)): slightly but statistically significantly reduced; prothrombin time, effect versus control in words (human blood plasma [2]; lowest concentration (10 mg/L)): fell only slightly; also recorded: most effectively lowered; TT, effect versus control in words (human blood plasma [4]; c = 25, and 50 mg/L): shorter TT than the control sample; VmaxC (of Fibrin Polymerization) (human blood plasma [5]; 50 mg/L): 105.67 ± 8.34%; VmaxF (of Fibrin Clot Lysis) (human blood plasma [5]; 50 mg/L): 66.90 ± 23.22 %; effect on fibrin polymerization (VmaxC) in words (human blood plasma [5]): did not influence; melting point: 120 to 123 °C
